For 14 compounds, GI50, LC50 and TGI50 results are on record in US20020019389A1, “Urea derivative useful as an anti-cancer agent and process for preparing same” (priority 2000, published 2002).

Values after ≈ are worked out from the molar mass of the structure shown. Where two headings read alike, the source gives them in different places.

Holding throughout (assay type): cell-based
The subject of data set [1] is HCT116 (rectal cancer) cell line. Nature of the data set: Anti-cancer activity in vitro, HCT116 cell line. As to the method:
(§1) The anti-cancer activity and toxicity of the compound according to the present invention were evaluated in vitro using A549 (lung cancer), SUN638 (gastric cancer), HCT116 (rectal cancer), and A431 (ovarian cancer) cell lines. The above four (4) cell lines were purchased from Cancer Research Institute, Seoul National University College of Medicine. […] The experiment was basically carried out according to the process described in Monks, A., et al, Journal of National Cancer Institute. 83: 757-766 (1991) and the results are represented in the following Tables 2 and 3.

Data set [2] relates to A549 (lung cancer) cell line. Put plainly: Anti-cancer activity in vitro, A549 cell line. As to the method:
as §1

The subject of data set [3] is SUN638 (gastric cancer) cell line. Nature of the data set: Anti-cancer activity in vitro, SUN638 cell line. As to the method: as §1
Where [4] appears, read: Homo sapiens, HCT-116, read-out: LC50.
Setting [5] is: Homo sapiens, A549, read-out: LC50.
Setting [6] is: Homo sapiens, A549 Cell Line, read-out: GI50.
Setting [7] is: SUN638 Cell Line, read-out: GI50.

Take `C=C(C)CN(CC)c1nc(N2CCN(C(=O)n3ccnc3)CC2)nc(N(CC)CC(=C)C)n1` [Compound 63, 1-[(1H-imidazol-1-yl)carbonyl]-4-{4,6-bis-[ethyl-(2-methylallyl)amino]-[1,3,5]triazin-2-yl}piperazine]: the concentration for 50% growth inhibition (GI50) came to 1.77 µg/mL (≈ 3.9 µM) in data set [1] (Homo sapiens, HCT-116); 2.23 µg/mL (≈ 4.92 µM) in data set [2] (Homo sapiens, A549); 1.81 µg/mL (≈ 3.99 µM) in data set [3]. For the same compound, the LC50 in data set [1] (setting [4]), in data set [2] (setting [5]) and in data set [3] (read-out: LC50) was above 100 µg/mL in each case.
In data set [2] (A549 Cell Line), `C=CCN(CC=C)c1nc(N(CC=C)CC=C)nc(N2CCN(C(=O)Nc3nc4ccccc4nc3OC)CC2)n1` [Compound 53] returned a GI50 of 2.75 µg/mL (≈ 4.94 µM), an LC50 above 100 µg/mL and a TGI50 of 8.91 µg/mL. In data set [3] (SUN638 Cell Line), the GI50 is 2.18 µg/mL (≈ 3.92 µM), the LC50 is above 100 µg/mL and the TGI50 is 5.49 µg/mL.
Regarding `COc1nc2ccccc2nc1NC(=O)N1CCC(c2ccccc2)(c2ccccc2)CC1` [Compound 16, 1-[N-(2-methoxyquinoxalin-3-yl)aminocarbonyl]-4,4-diphenyl-piperidine], the LC50 in data set [2] (setting [5]) and in data set [3] (read-out: LC50) was above 100 µg/mL each time. Besides, the GI50 in data set [2] (setting [6]) is 1.02 µg/mL (≈ 2.33 µM); in data set [3] (setting [7]) it was 0.15 µg/mL (≈ 0.342 µM).
For the compound `CCOc1nc2ccccc2nc1NC(=O)N1CCc2cc(OC)c(OC)cc2C(c2ccccc2)C1` (stereo not drawn) [Compound 7, 3-[N-(2-ethoxyquinoxalin-3-yl)aminocarbonyl]-7,8-dimethoxy-1-phenyl-2,3,4,5-tetrahydro-3H-benzazepine], in data set [1] (HCT116 Cell Line), the GI50 was 0.15 µg/mL (≈ 0.301 µM), the LC50 was above 100 µg/mL and the TGI50 came out at 4.08 µg/mL. In data set [2] (A549 Cell Line), this compound had a GI50 of 3.38 µg/mL (≈ 6.78 µM), an LC50 above 100 µg/mL and a TGI50 of 100 µg/mL. In data set [3] (SUN638 Cell Line), the concentration for 50% growth inhibition (GI50) was 2.45 µg/mL (≈ 4.91 µM), the median lethal concentration (LC50) is above 100 µg/mL and the TGI50 was found to be 7.41 µg/mL.
For `COc1cc2c(cc1OC)[C@@H](c1ccccc1)CN(C(=O)n1ccnc1)CC2` [Compound 68, 3-[(1H-imidazol-1-yl)carbonyl]-(R)-7,8-dimethoxy-1-phenyl-2,3,4,5-tetrahydro-3H-benzazepine], in data set [1] (HCT116 Cell Line), the GI50 turned out to be 0.24 µg/mL (≈ 0.636 µM), the LC50 is above 100 µg/mL and the TGI50 was 10.96 µg/mL. In data set [2] (A549 Cell Line), this compound yielded a GI50 of 0.23 µg/mL (≈ 0.609 µM), an LC50 above 100 µg/mL and a TGI50 of 100 µg/mL. In data set [3] (SUN638 Cell Line), this compound came in with a GI50 of 0.22 µg/mL (≈ 0.583 µM), an LC50 above 100 µg/mL and a TGI50 of 97.72 µg/mL.
On to `O=C(NC(c1ccccc1)c1ccccc1)N1CCC(c2ccccc2)(c2ccccc2)CC1` [Compound 17, 1-[N-(diphenylmethyl)aminocarbonyl]-4,4-diphenyl-piperidine], for which the LC50 in data set [2] (setting [5]) and in data set [3] (read-out: LC50) was above 100 µg/mL in each case. Moreover, the GI50 is 6.45 µg/mL (≈ 14.4 µM) in data set [2] (setting [6]) and 0.63 µg/mL (≈ 1.41 µM) in data set [3] (setting [7]).
Take `COc1cc2c(cc1OC)C(c1ccc(F)cc1)CN(C(=O)Nc1nc3ccccc3nc1OC)CC2` (stereo not drawn) [Compound 5, 3-[N-(2-methoxyquinoxalin-3-yl)aminocarbonyl]-7,8-dimethoxy-1-(4-fluoro)phenyl-2,3,4,5-tetrahydro-3H-benzazepine]: the GI50 in data set [1] (HCT116 Cell Line) was 0.15 µg/mL (≈ 0.298 µM); in data set [2] (A549 Cell Line), 2.08 µg/mL (≈ 4.14 µM); in data set [3] (SUN638 Cell Line), 1.69 µg/mL (≈ 3.36 µM). The LC50 in data set [1] (HCT116 Cell Line), in data set [2] (A549 Cell Line) and in data set [3] (SUN638 Cell Line) was above 100 µg/mL each time. Besides, the figures for the TGI50 in data set [1] (HCT116 Cell Line), in data set [2] (A549 Cell Line) and in data set [3] (SUN638 Cell Line) were 4.07 µg/mL, 46.98 µg/mL and 6.16 µg/mL, respectively.
Regarding `O=C(N1CCC(c2ccccc2)(c2ccccc2)CC1)n1ccnc1` [Compound 80, 1-[(1H-imidazol-1-yl)carbonyl]-4,4-diphenyl-piperidine], the GI50 in data set [1] (Homo sapiens, HCT-116) came to 1.47 µg/mL (≈ 4.44 µM); in data set [2] (Homo sapiens, A549), 1.38 µg/mL (≈ 4.16 µM); in data set [3] it was 1.62 µg/mL (≈ 4.89 µM). The median lethal concentration (LC50) in data set [1] (setting [4]), in data set [2] (setting [5]) and in data set [3] (read-out: LC50) was above 100 µg/mL in each case.
As for `COc1ccc(C#N)cc1NC(=O)N1CCN(c2cc(C)cc(C)c2)CC1` [Compound 26, 1-[(2-methoxy-5-cyanophenyl)aminocarbonyl]-4-(3,5-dimethylphenyl)piperazine], the LC50 in data set [2] (setting [5]) and in data set [3] (read-out: LC50) was above 100 µg/mL throughout. The GI50 was determined as 1.36 µg/mL (≈ 3.73 µM) in data set [2] (setting [6]) and 2.51 µg/mL (≈ 6.89 µM) in data set [3] (setting [7]).
For the compound `COc1cc2c(cc1OC)C(c1ccc(Cl)cc1)CN(C(=O)Nc1nc3ccccc3nc1OC)CC2` (stereo not drawn) [Compound 6, 3-[N-(2-methoxyquinoxalin-3-yl)aminocarbonyl]-7,8-dimethoxy-1-(4-chloro)phenyl-2,3,4,5-tetrahydro-3H-benzazepine], the values for the concentration for 50% growth inhibition (GI50) in data set [1] (HCT116 Cell Line), in data set [2] (A549 Cell Line) and in data set [3] (SUN638 Cell Line) were 0.39 µg/mL (≈ 0.751 µM), 2.69 µg/mL (≈ 5.18 µM) and 1.90 µg/mL (≈ 3.66 µM), respectively. The LC50 in data set [1] (HCT116 Cell Line), in data set [2] (A549 Cell Line) and in data set [3] (SUN638 Cell Line) was above 100 µg/mL in each case. In addition, the TGI50 in data set [1] (HCT116 Cell Line) is 3.31 µg/mL; in data set [2] (A549 Cell Line) it was 100 µg/mL; in data set [3] (SUN638 Cell Line), 6.91 µg/mL.
In data set [2] (A549 Cell Line), `Cc1cc(C)cc(N2CCN(C(=O)Nc3nc4ccccc4[n+]([O-])n3)CC2)c1` [Compound 28, 1-[(benzo-1,2,4-triazin-1-N-oxide-3-yl)aminocarbonyl]-4-(3,5-dimethylphenyl)piperazine] came in with a GI50 of 1.31 µg/mL (≈ 3.46 µM), an LC50 above 100 µg/mL and a TGI50 of 34.67 µg/mL. In data set [3] (SUN638 Cell Line), this compound yielded a GI50 of 1.99 µg/mL (≈ 5.26 µM), an LC50 above 100 µg/mL and a TGI50 of 7.07 µg/mL.
In data set [1] (HCT116 Cell Line), `COc1cc2c(cc1OC)C(c1ccc(Cl)cc1)CN(C(=O)n1ccnc1)CC2` (stereo not drawn) [Compound 71, 3-[(1H-imidazol-1-yl)carbonyl]-7,8-dimethoxy-1-(4-chloro)phenyl-2,3,4,5-tetrahydro-3H-benzazepine] registered a GI50 of 2.69 µg/mL (≈ 6.53 µM), an LC50 above 100 µg/mL and a TGI50 of 14.12 µg/mL. In data set [2] (A549 Cell Line), this compound returned a 50% growth inhibitory concentration (GI50) of 4.78 µg/mL (≈ 11.6 µM), an LC50 above 100 µg/mL and a TGI50 of 93.32 µg/mL. Moreover, in data set [3] (SUN638 Cell Line), the GI50 stood at 2.63 µg/mL (≈ 6.39 µM), the LC50 is above 100 µg/mL and the TGI50 is 9.12 µg/mL.
Take `COc1ccc2c(c1)C(c1ccc(Cl)cc1)CN(C(=O)n1ccnc1)CC2` (stereo not drawn) [Compound 74, 3-[(1H-imidazol-1-yl)carbonyl]-8-methoxy-1-(4-chloro)phenyl-2,3,4,5-tetrahydro-3H-benzazepine]: in data set [1] (HCT116 Cell Line), the GI50 is 1.44 µg/mL (≈ 3.77 µM), the LC50 was above 100 µg/mL and the TGI50 worked out at 7.24 µg/mL.
In data set [2] (A549 Cell Line), `COc1cc2c(cc1OC)C(c1ccccc1)CN(C(=O)Nc1cc(C)c(C)nc1OC)CC2` (stereo not drawn) [Compound 1, 3-[N-(5,6-dimethyl-2-methoxypyridin-3-yl)aminocarbonyl]-7,8-dimethoxy-1-phenyl-2,3,4,5-tetrahydro-3H-benzazepine] returned a 50% growth inhibitory concentration (GI50) of 1.21 µg/mL (≈ 2.62 µM), an LC50 above 100 µg/mL and a TGI50 of 39.81 µg/mL. In data set [3] (SUN638 Cell Line), this compound registered a GI50 of 1.99 µg/mL (≈ 4.31 µM), an LC50 above 100 µg/mL and a TGI50 of 7.07 µg/mL.
